According to publication PMC5537347, “A short D-enantiomeric antimicrobial peptide with potent immunomodulatory and antibiofilm activity against multidrug-resistant Pseudomonas aeruginosa and Acinetobacter baumannii” (Scientific Reports, 2017):
Converted amounts (≈) assume the structure as drawn. Where two headings read alike, the source gives them in different places. Peptide text beside a SMILES is read from it.

Columns and labels:
[1] = system: C. elegans strain glp-4;sek 1; experiment: Toxicity of peptides in uninfected C. elegans; assay type: in vivo, Caenorhabditis elegans; details: worms grown four days with peptide; D-RR4 and colistin at 8 × MIC
Description: To test the efficacy of the synthetic peptides to protect against infections in vivo, we utilized a C. elegans model of bacterial infection. This model has been used extensively for early-stage evaluation of promising antimicrobials, [35], [36]. Initially, the lethal dose of D-RR4 against uninfected nematodes was determined.
(A) Evaluation of toxicity of peptides in Caenorhabditis elegans. C. elegans strain glp-4;sek 1 was grown for four days in the presence of peptides at different concentrations. Worms were monitored daily and the live worms were counted. Results are expressed as a Kaplan-Meier survival curve. (B) Evaluation of antimicrobial activity of peptides to reduce the bacterial CFU inside infected Caenorhabditis elegans. C. elegans strain glp-4; sek 1 were infected with P. aeruginosa PAO1, colistin-resistant P. aeruginosa 1109, or A. baumannii ATCC BAA-1605. […] After treatment, worms were lysed and bacteria were counted. One asterisk (*) indicates significant difference with the negative control. Two asterisks (**) indicates significant difference with the monotherapy treatment (P < 0.05). Results are expressed as means from three biological replicates ± standard deviation. (C) Efficacy of peptides in a Caenorhabditis elegans model of bacterial infection. […] Worms were monitored daily and the live worms were counted. Results are expressed as a Kaplan-Meier survival curve. C. elegans receiving no treatment served as a negative control.

[2] = system: P. aeruginosa and A. baumannii isolates
Source text: (§1) The broth microdilution technique was utilized to assess the MIC of designed peptides according to the guidelines of the Clinical and Laboratory Standards Institute (CLSI)[37].

[3] = system: colistin-resistant P. aeruginosa isolated from cystic fibrosis patients; details: colistin-resistant isolated from cystic fibrosis patients
Source text: as §1

[4] = system: human keratinocytes (HaCaT cells); experiment: Cytotoxicity, MTS assay; details: 24 h
Description: (§2) A significant limitation for translating AMPs into clinical applications is their toxicity to host (mammalian) cells. Herein, we evaluated the cytotoxic effects of our peptide constructs against murine macrophages (J774.1A) and human keratinocytes (HaCaT cells), via the MTS assay.
(§3) The peptides were assayed for potential in vitro toxicity against human keratinocytes (HaCaT) and murine macrophage cells (J774A.1), as described before, with the following modifications. Cells were treated with peptides at different concentrations for 24 hours. The therapeutic index of the peptides was calculated as the ratio of mammalian EC50 (the concentration of peptide that inhibited growth of 50% of the mammalian cells) to the MIC50 of peptides against bacteria.

[5] = system: murine macrophages (J774.1A); experiment: Cytotoxicity, MTS assay; details: 24 h
Description: as §2, §3

[6] = system: human red blood cells; experiment: Hemolysis assay; assay type: cell-based; details: for HC50: red cells of human
Description: Next, we assessed the hemolytic activity of the peptides on human red blood cells (RBCs).
Peptides were assayed for hemolytic activity against human red blood cells, as described previously.

[7] = system: LPS-induced activation of the LAL enzyme (Limulus amoebocyte lysate); experiment: Binding of peptides to lipopolysaccharide (LAL assay); assay type: biochemical; details: one EU of LPS, 37 °C, 30 minutes
Description: (§4) Figure 3 Ability of peptides to neutralize LPS and reduce inflammatory cytokines expression. (A) LPS binding activity of peptides. Peptides at different concentrations were incubated with one endotoxin unit (EU) of LPS at 37 °C for 30 minutes. […] The binding of peptides with LPS is expressed as percent change relative to the untreated samples. (B) Anti-inflammatory effect of peptides on LPS-stimulated macrophages. J774A.1 cells were stimulated with LPS (150 ng/mL final concentration) in the presence of different concentrations of peptides. Cells stimulated with LPS alone and untreated cells served as controls. Cells were incubated for six hours at 37 °C before the supernatant from each treatment group was collected. Detection of tumor necrosis factor-α (TNF-α) and interleukin-6 (IL-6) in supernatants was determined using ELISA. Cytokine levels are expressed as percent change relative to the LPS-stimulated control. Statistical analysis was calculated using one-way ANOVA, with post hoc Tukey’s multiple comparisons test. P < 0.05 was considered significant. One asterisk (*) indicates significant difference with the negative control.
To determine the peptides’ ability to bind to LPS, a Limulus amoebocyte lysate (LAL) kit (Genscript, USA Inc.) was utilized, as described in previous reports. The peptides were dissolved in pyrogen-free water and serially diluted in the same solvent. The peptides were then incubated with one endotoxin unit (EU) of LPS at 37 °C for 30 minutes in order to permit the peptides to bind LPS. The reaction mixture (50 μL) was added to 50 μL of LAL reagent, and further incubated for 10 minutes. Next, 100 μL of LAL chromogenic substrate was added. The mixture was incubated at 37 °C for six minutes. The optical density (at 545 nm) was determined using a microplate reader. Colistin was used as a positive control. The binding of peptides with LPS was expressed as the percent change relative to the untreated control.

[8] = system: IL-6; experiment: Anti-inflammatory effect on LPS-stimulated macrophages, ELISA; assay type: cell-based, murine; details: J774A.1 cells, LPS 150 ng/mL, six hours
Description: as §4
(§5) To assess the anti-inflammatory effect of our peptides on LPS-stimulated macrophages, J774A.1 cells were seeded and incubated as described above (for toxicity assessment). Next, the cells were stimulated with LPS (150 ng/ml final concentration) in the presence of different concentrations of peptides (RR and D-RR4). Cells stimulated with LPS alone and untreated cells served as controls. Cells were incubated for six hours at 37 °C and the supernatant from each treatment was collected and stored at −20 °C until use. Tumor necrosis factor-α (TNF-α) and interleukin-6 (IL-6) present in the supernatant was quantified using ELISA, as described previously. Cytokine levels were presented as the percent change relative to the LPS-stimulated control, using triplicate samples for each treatment condition.

[9] = system: TNF-α; experiment: as above; assay type: cell-based, murine; details: J774A.1 cells, LPS 150 ng/mL, six hours
Description: as §4, §5

[10] = system: P. aeruginosa PAO1 biofilm; experiment: Disruption of established biofilms, microtiter dish crystal violet assay; assay type: cell-based; details: 32 × MIC, mature (24 hour) biofilm, 24 hours at 37 °C, crystal violet OD 595 nm
Description: Figure 1 Efficacy of peptides on established biofilms of P. aeruginosa PAO1 and A. baumannii ATCC BAA-1605. […] After incubation, wells were washed and biofilms were stained with 0.5% (w/v) crystal violet for 30 minutes. The dye was solubilized with ethanol (95%) and the optical density (595 nm) of the biofilm mass was measured. Experiments were repeated twice independently and the average values are reported.
To examine the peptides’ ability to disrupt bacterial biofilms, the microtiter dish biofilm formation assay was employed[41]–[43].

SMILES | MIC90 [2] [µM] | MIC50 [3] [µM] | MIC90 [3] [µM] | EC50 [4] [µM] | EC50 [5] [µM] | HC50 [6] [µM] | also measured
CC[C@H](C)[C@H](NC(=O)CN)C(=O)NCC(=O)N[C@@H](C)C(=O)N[C@H](C(=O)N[C@@H](CC(C)C)C(=O)N[C@@H](CCCCN)C(=O)N[C@H](C(=O)N[C@@H](CC(C)C)C(=O)N[C@H](C(=O)N[C@H](C(=O)NCC(=O)N[C@@H](CC(C)C)C(=O)N1CCC[C@H]1C(=O)N[C@@H](C)C(=O)N[C@@H](CC(C)C)C(=O)N[C@H](C(=O)N[C@@H](CO)C(=O)N[C@@H](Cc1c[nH]c2ccccc12)C(=O)N[C@H](C(=O)N[C@@H](CCCCN)C(=O)N[C@@H](CCCNC(=N)N)C(=O)N[C@@H](CCCCN)C(=O)N[C@@H](CCCNC(=N)N)C(=O)N[C@@H](CCC(N)=O)C(=O)N[C@@H](CCC(N)=O)C(N)=O)[C@@H](C)CC)[C@@H](C)CC)[C@@H](C)O)[C@@H](C)O)C(C)C)C(C)C [Melittin] |  |  |  |  |  |  | toxicity to uninfected worms [1]: completely killed C. elegans after 3 days
CC[C@H](C)[C@H](NC(=O)[C@H](CCCCN)NC(=O)[C@H](CCCCN)NC(=O)[C@H](Cc1c[nH]c2ccccc12)NC(=O)[C@@H](NC(=O)[C@H](CCCCN)NC(=O)[C@@H](NC(=O)[C@H](CCCNC(=N)N)NC(=O)[C@H](CCCNC(=N)N)NC(=O)[C@H](CCCCN)NC(=O)[C@@H](N)Cc1c[nH]c2ccccc12)[C@@H](C)CC)[C@@H](C)CC)C(=O)N[C@@H](CCCNC(=N)N)C(=O)O [RR1] (H-WKRRIKIWKKIR-OH; N-terminus and C-terminus assumed) | >256 | >128 | >128 | > 256 | > 256 | > 256 | MIC against all tested bacterial strains [2]: > 256 µM; MIC50 ([2]; MIC that inhibited growth of 50% of all isolates (Table 2)): > 256 µM; MIC [3]: >128 µM
CC[C@H](C)[C@H](NC(=O)[C@H](Cc1c[nH]c2ccccc12)NC(=O)[C@H](CCCCN)NC(=O)[C@H](CCCCN)NC(=O)[C@@H](NC(=O)[C@H](CCCNC(=N)N)NC(=O)[C@H](CCCNC(=N)N)NC(=O)[C@@H](NC(=O)[C@@H](N)Cc1c[nH]c2ccccc12)[C@@H](C)CC)[C@@H](C)CC)C(=O)N[C@@H](CCCNC(=N)N)C(=O)N[C@@H](CCCNC(=N)N)C(=O)N[C@H](C(=O)N[C@@H](Cc1c[nH]cn1)C(=O)N[C@@H](CCCCN)C(=O)O)C(C)C [RR2] (H-WIRRIKKWIRRVHK-OH; N-terminus and C-terminus assumed) | 8 (≈ 15.8 µg/mL) | 32 (≈ 63.2 µg/mL) | 32 (≈ 63.2 µg/mL) | 64 | 128 | 256 | MIC50 [2]: 4 µM (≈ 7.9 µg/mL); Therapeutic index (TI) RBCs [6]: 64
CC[C@H](C)[C@H](NC(=O)[C@H](CCCNC(=N)N)NC(=O)[C@H](CCCNC(=N)N)NC(=O)[C@H](CC(C)C)NC(=O)[C@@H](N)Cc1c[nH]c2ccccc12)C(=O)N[C@@H](CCCCN)C(=O)N[C@@H](C)C(=O)N[C@@H](Cc1c[nH]c2ccccc12)C(=O)N[C@@H](CC(C)C)C(=O)N[C@@H](CCCNC(=N)N)C(=O)N[C@@H](CCCNC(=N)N)C(=O)N[C@@H](CCCCN)C(=O)N[C@@H](CCCNC(=N)N)C(=O)N[C@@H](CCCCN)C(=O)O [RR3] (H-WLRRIKAWLRRKRK-OH; N-terminus and C-terminus assumed) | 16 (≈ 31.5 µg/mL) | 16 (≈ 31.5 µg/mL) | 32 (≈ 62.9 µg/mL) | 128 | 128 | > 256 | MIC50 [2]: 8 µM (≈ 15.7 µg/mL); Therapeutic index (TI) RBCs [6]: 64
CC[C@H](C)[C@H](NC(=O)[C@H](CCCNC(=N)N)NC(=O)[C@H](CCCNC(=N)N)NC(=O)[C@H](CC(C)C)NC(=O)[C@@H](N)Cc1c[nH]c2ccccc12)C(=O)N[C@@H](CCCCN)C(=O)N[C@@H](C)C(=O)N[C@@H](Cc1c[nH]c2ccccc12)C(=O)N[C@@H](CC(C)C)C(=O)N[C@@H](CCCNC(=N)N)C(=O)N[C@@H](CCCNC(=N)N)C(=O)O [RR] (H-WLRRIKAWLRR-OH; N-terminus and C-terminus assumed) |  |  |  |  |  |  | inhibition of LPS-induced activation of the LAL enzyme ([7]; 5 µM peptide): 21.3%; inhibition of LPS-induced activation of the LAL enzyme ([7]; 10 µM peptide): 43.2%; inhibition of LPS-induced activation of the LAL enzyme ([7]; 15 µM peptide): 59.6%; inhibition of LPS-induced activation of the LAL enzyme ([7]; 20 µM peptide): 82.4%; decrease of IL-6 production ([8]; 10 µM): 75.4%; decrease of IL-6 production ([8]; 20 µM): 96.5%; decrease of TNF-α production ([9]; 10 µM): 24.4%; decrease of TNF-α production ([9]; 20 µM): 84.0%
CNC(C)C1CCC(N)C(OC2C(N)CC(N)C(OC3OCC(C)(O)C(NC)C3O)C2O)O1 (stereo not drawn) [gentamicin] |  |  |  |  |  |  | biofilm mass disrupted [10]: 50%
NC[C@H]1O[C@H](O[C@H]2[C@H](O)[C@@H](O[C@H]3O[C@H](CO)[C@@H](O)[C@H](N)[C@H]3O)[C@H](N)C[C@@H]2N)[C@H](N)C[C@@H]1O [tobramycin] |  |  |  |  |  |  | biofilm mass disrupted [10]: 50%
